Assay [1] deals with T1, human GPR4 (Homo sapiens (Human), UniProt P46093). In words: Human GPR4 binding assay with additional human serum albumin (4% HSA). As to conditions: binding assay with 4% HSA. The method, then: (§1) Cells were grown in T175 flasks to a density of about 1×10^6 cells/mL in growth medium. The cells were harvested by centrifugation (3000 rpm for 30 minutes at 4° C.) and the pellet resuspended in ice cold buffer A (20 mM HEPES pH 7.8, 10 mM EDTA, 100 mM NaCl, 1 tab/40 mL protease inhibitor complete). […] The homogenate was centrifuged at 18000 rpm for 50 min at 4° C. and the membrane protein pellet resuspended in cold buffer A using the Polytron (2×20 seconds). The protein concentration is determined using the Bio Rad Protein Assay and human IgG as standard. The volume of the membrane protein suspension is adjusted to a final concentration of about 2 mg protein/mL. The suspension is then once again homogenized (Polytron) on ice at 25000 rpm for 20 seconds before being aliquoted and stored at −80° C.
(§2) Radio Ligand Binding Assay: Serial dilutions of compounds (stock in 10 mM DMSO) are prepared by first diluting the compounds in DMSO followed by a 1:50 dilution into assay buffer (10 mM HEPES, pH 8.0, 100 mM NaCl, 5 mM MgCl2, 1 mM CaCl2, 0.5% fatty acid-free BSA, 0.05% Tween-20). […] The desired amount of membranes (20 μg/well) is diluted with assay buffer. […] 100 μL of the membrane-suspension is added and the plate stirred for 60 minutes. […] The filter plate is washed 5 times with ice-cold wash buffer, dried and sealed at the bottom. Then 20 μL of Microscint 40 is added into each well and the top of the plate is sealed. Finally the plate is counted for 2 min/well in a TopCount NXT instrument (Packard Instruments). The data are analyzed using the GraphPad Prism™ software.
In a similar manner, a binding assay with additional human serum albumin (4% HSA) has been established.

For assay [2], the target named is T1, human GPR4. As to the kind of experiment: Human GPR4 binding assay ([3H]4 radioligand, membranes of 300.19 cells expressing human GPR4). The method, then: a) Human GPR4 Binding Assay
as §1, §2

A further assay addresses rat GPR4 (Rattus norvegicus (Rat), UniProt Q4KLH9). In words: Rat GPR4 cAMP assay. It is filed as cell-based. As to conditions: read-out: r cAMP IC50. The method, then:
(§3) HeLa cells stably expressing human GPR4 were established by transfecting the cells with a construct containing the human GPR4 coding sequence. The cells were grown in Dulbecco's Modified Eagle Medium (DMEM)/HAM's tissue culture medium F12 (HAM's F12) supplemented with 10% fetal calf serum (FCS), 100 u/ml penicillin, 100 μg/ml streptomycin and 400 μg/ml G418 and 10 mM Hepes pH 8.0. pH-induced formation of cAMP was determined using the homogeneous time resolved fluorescence (HTRF) technology as provided by CisBio Inc. The cells were seeded in 384-well plates and cultured for 24 hours at 37° C., 5% CO2 before performing the assay. Medium was removed and 10 μl buffer A (Hepes buffered saline (HBS), 10 mM Hepes, pH 8, 2 mM 3-Isobutyl-1-methylxanthin (IBMX)) was added. For compound testing, buffer A with 2× concentrated compounds was used. Cells were incubated for 15 min at room temperature. 10 μl buffer B (HBS, 30 mM Hepes, specific pH) was added to reach the appropriate final pH for stimulation (see below) and incubation was continued for 15 min at room temperature. […] HBS: 130 mM NaCl, 0.9 mM NaH2 PO4, 5.4 mM KCl, 0.8 mM MgSO4, CaCl2 1.8 mM, 25 mM glucose, 10-30 mM Hepes. Adjustment of HBS buffers:
(§4) Compounds were diluted from fresh stock solutions at 10 mM in DMSO to 2 mM and then used for serial dilutions in DMSO.
(§5) In a similar manner, assays for the mouse (m) and rat (r) GPR4 receptors have been established.
(In general: cAMP levels reflect the balance of adenylyl cyclase and phosphodiesterase activity.)

Assay [3] has as its target T1, human GPR4. In words: Cell-based assay for human GPR4 activity (pH-induced cAMP formation, HTRF, HeLa cells). As to conditions: HeLa cells stably expressing human GPR4, pH-induced cAMP. Here is the method: b) Cell-Based Assay for Human GPR4 Activity
as §3, §4

The target in a further assay is mouse GPR4 (Mus musculus (Mouse), UniProt Q8BUD0). In words: Mouse GPR4 cAMP assay. It is filed as cell-based. The method, then:
as §3, §4, §5

In the next assay the target is Human H3 (Homo sapiens (Human), UniProt Q9Y5N1). In words: Human H3 binding assay (SPA, [3H]-R-alpha-Methylhistamine). As to conditions: 3 nM [3H]-R-alpha-Methylhistamine. Here is the method: c) Human H3 Binding Assay
The Scintillation Proximity Binding Assay (SPA) assay was performed in a final volume of 50 μL per well in a 384-well polystyrene plate.
The final concentration of the radioligand was 3 nM. • 20 μL of a beads (PVT-WGA type A) and membranes mixed suspension in assay buffer, in order to get a final concentration of 10 μg/well of membranes and 200 μg/well of beads. As an example, 1471 μL membranes (Conc.: 5.1 mg/mL) and 1500 μL of bead suspension (Conc.: 100 mg/mL) are diluted to a final volume of 15 mL of assay buffer.
The plates were sealed and shaken at room temperature, then allowed to stand at room temperature for at least 1 hour. The plates were counted using a Perkin Elmer TopCount reader, each well being counted for 1 minute.

The mark [4] stands for this setting: radioligand [3H]4 (example 39), membranes of 300.19 cells expressing human GPR4.

For 13 compounds, IC50 results are on record in patent publication US8748435B2, “Pyrazolo pyrimidine derivatives” (Novartis AG, priority 2011, dated 2014).

Counter-ions that a name gives are not always drawn.

Sequence of mouse GPR4 (Q8BUD0 whole entry): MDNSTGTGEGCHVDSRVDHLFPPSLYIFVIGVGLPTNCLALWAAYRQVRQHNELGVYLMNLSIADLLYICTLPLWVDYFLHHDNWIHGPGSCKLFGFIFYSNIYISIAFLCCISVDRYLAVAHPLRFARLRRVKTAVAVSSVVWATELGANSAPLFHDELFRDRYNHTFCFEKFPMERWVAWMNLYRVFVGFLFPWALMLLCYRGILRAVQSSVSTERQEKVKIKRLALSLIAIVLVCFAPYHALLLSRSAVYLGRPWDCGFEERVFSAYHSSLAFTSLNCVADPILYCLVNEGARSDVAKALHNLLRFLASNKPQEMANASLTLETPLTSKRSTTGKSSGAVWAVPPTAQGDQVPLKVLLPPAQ
Sequence of Human H3 (Q9Y5N1 whole entry): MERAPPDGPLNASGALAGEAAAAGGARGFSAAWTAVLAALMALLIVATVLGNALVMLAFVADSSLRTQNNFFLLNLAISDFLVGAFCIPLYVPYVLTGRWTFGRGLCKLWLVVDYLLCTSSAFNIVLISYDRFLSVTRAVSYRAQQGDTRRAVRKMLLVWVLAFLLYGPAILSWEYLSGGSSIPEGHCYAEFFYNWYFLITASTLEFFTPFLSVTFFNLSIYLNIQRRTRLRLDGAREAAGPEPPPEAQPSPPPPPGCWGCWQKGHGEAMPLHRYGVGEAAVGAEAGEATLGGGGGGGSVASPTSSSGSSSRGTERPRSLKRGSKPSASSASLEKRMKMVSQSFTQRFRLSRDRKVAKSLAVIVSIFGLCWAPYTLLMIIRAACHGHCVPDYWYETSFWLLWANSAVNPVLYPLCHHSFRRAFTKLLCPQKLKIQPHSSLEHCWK
Sequence of rat GPR4 (Q4KLH9 whole entry): as the sequence (Q8BUD0 whole entry) above, with G8W, H51R, S339T counted along it
T1 sequence (P46093 whole entry): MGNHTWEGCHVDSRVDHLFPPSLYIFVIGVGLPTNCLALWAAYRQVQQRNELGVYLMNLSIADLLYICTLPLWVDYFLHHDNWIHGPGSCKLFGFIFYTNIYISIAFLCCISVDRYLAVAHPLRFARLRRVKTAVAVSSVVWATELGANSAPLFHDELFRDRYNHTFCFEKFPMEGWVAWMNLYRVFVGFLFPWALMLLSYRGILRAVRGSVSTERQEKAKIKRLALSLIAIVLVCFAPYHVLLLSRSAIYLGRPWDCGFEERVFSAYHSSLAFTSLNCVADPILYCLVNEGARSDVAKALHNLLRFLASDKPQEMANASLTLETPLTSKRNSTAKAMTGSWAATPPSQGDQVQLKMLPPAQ

For orientation: IC50 means the midpoint of a concentration-inhibition curve. Regarding `CCc1nn2c(C)cc(C)nc2c1Cc1ccc(OCCC2(O)CCNCC2)cc1` [Example 25, 4-{2-[4-(2-Ethyl-5,7-dimethyl-pyrazolo[1,5-a]pyrimidin-3-ylmethyl)-phenoxy]-ethyl}-piperidin-4-ol], the IC50 at human GPR4 [1] is 63 nM; on human GPR4 [2] (setting [4]) it was 110 nM; at rat GPR4, 2090 nM; on human GPR4 [3], 52 nM; against mouse GPR4, 635 nM; on Human H3, above 30000 nM.
Turning to `CCc1nn2c(C)cc(C)nc2c1Cc1ccc(-c2nnc(C3CCN(C(=O)[C@H](CO)NC)CC3)o2)cc1` [Example 38, (S)-1-(4-{5-[4-(2-Ethyl-5,7-dimethyl-pyrazolo[1,5-a]pyrimidin-3-ylmethyl)-phenyl]-[1,3,4]oxadiazol-2-yl}-piperidin-1-yl)-3-hydroxy-2-methylamino-propan-1-one hydrochloride], the IC50 was 29 nM at human GPR4 [1]; 15 nM on human GPR4 [2] (setting [4]); 811 nM on rat GPR4; 45 nM on human GPR4 [3]; 180 nM on mouse GPR4; above 30000 nM at Human H3.
Take `CCc1nn2c(C)cc(C)nc2c1Cc1ccc(/C=C/CC2(O)CNC2)cc1` [Example 2, 3-{(E)-3-[4-(2-Ethyl-5,7-dimethyl-pyrazolo[1,5-a]pyrimidin-3-ylmethyl)-phenyl]-allyl}-azetidin-3-ol]: the IC50 at human GPR4 [1] is 52 nM; on human GPR4 [2] it was 34 nM; on rat GPR4, 989 nM; at human GPR4 [3] it was 55 nM; against mouse GPR4, 632 nM; at Human H3, above 10000 nM.
As for `CCc1nn2c(C)cc(C)nc2c1Cc1ccc(/C=C/CN2CCN(C(=O)[C@H](CO)NC)CC2)cc1` [Example 15, (S)-1-(4-{(E)-3-[4-(2-Ethyl-5,7-dimethyl-pyrazolo[1,5-a]pyrimidin-3-ylmethyl)-phenyl]-allyl}-piperazin-1-yl)-3-hydroxy-2-methylamino-propan-1-one], the IC50 on human GPR4 [1] amounted to 44 nM; at human GPR4 [2] (setting [4]), 51 nM; at rat GPR4 it was 634 nM; on human GPR4 [3] it was 56 nM; against mouse GPR4, 216 nM; at Human H3, 26000 nM.
With `CCc1nn2c(C)cc(C)nc2c1Cc1ccc(OCCN2CCNCC2)cc1` [Example 26, 2-Ethyl-5,7-dimethyl-3-[4-(2-piperazin-1-yl-ethoxy)-benzyl]-pyrazolo[1,5-a]pyrimidine], the IC50 on human GPR4 [1] was 69 nM; on human GPR4 [2], 44 nM; at rat GPR4, 2640 nM; against human GPR4 [3] it was 96 nM; against mouse GPR4, 633 nM; on Human H3, above 30000 nM.
`CCc1nn2c(C)cc(C)nc2c1Cc1ccc(/C=C/CN2CCN(C(=O)[C@H]3NCC[C@H]3O)CC2)cc1` [Example 16, (4-{(E)-3-[4-(2-Ethyl-5,7-dimethyl-pyrazolo[1,5-a]pyrimidin-3-ylmethyl)-phenyl]-allyl}-piperazin-1-yl)-((2S,3R)-3-hydroxy-pyrrolidin-2-yl)-methanone dihydrochloride]: the IC50 was 120 nM on human GPR4 [1]; 35 nM at human GPR4 [2] (setting [4]); 837 nM at rat GPR4; 41 nM against human GPR4 [3]; 200 nM on mouse GPR4; above 30000 nM on Human H3.
Take `CCc1nn2c(C)cc(C)nc2c1Cc1ccc(-n2cc(CC3(O)CCNCC3)nn2)cc1` [Example 34, 4-{1-[4-(2-Ethyl-5,7-dimethyl-pyrazolo[1,5-a]pyrimidin-3-ylmethyl)-phenyl]-1H-[1,2,3]triazol-4-ylmethyl}-piperidin-4-ol]: the IC50 on human GPR4 [1] is 78 nM; at human GPR4 [2], 77 nM; at rat GPR4, 1230 nM; on human GPR4 [3] it was 58 nM; on mouse GPR4, 534 nM; at Human H3 it was above 30000 nM.
In the case of `CCc1nn2c(C)cc(C)nc2c1Cc1ccc(/C=C/CC2(O)CCNCC2)cc1` [Example 3, 4-{(E)-3-[4-(2-Ethyl-5,7-dimethyl-pyrazolo[1,5-a]pyrimidin-3-ylmethyl)-phenyl]-allyl}-piperidin-4-ol], the IC50 on human GPR4 [1] was 49 nM; at human GPR4 [2] (setting [4]), 44 nM; at rat GPR4, 338 nM; at human GPR4 [3] it was 31 nM; on mouse GPR4 it was 124 nM; at Human H3 it was above 30000 nM.
With `CCc1nn2c(C)cc(C)nc2c1Cc1ccc(-c2nnc([C@H]3CC[C@H](N)CC3)o2)cc1` [Example 36, 4-{5-[4-(2-Ethyl-5,7-dimethyl-pyrazolo[1,5-a]pyrimidin-3-ylmethyl)-phenyl]-[1,3,4]oxadiazol-2-yl}-cyclohexylamine], the IC50 on human GPR4 [1] is 17 nM; on human GPR4 [2] (setting [4]) it was 5 nM; at rat GPR4, 2290 nM; against human GPR4 [3], 51 nM; on mouse GPR4, 284 nM; on Human H3, above 30000 nM.
For `CCc1nn2c(C)cc(C)nc2c1Cc1ccc(/C=C/CN2CCN[C@H](COC)C2)cc1` [Example 10, 2-Ethyl-3-{4-[(E)-3-((S)-3-methoxymethyl-piperazin-1-yl)-propenyl]-benzyl}-5,7-dimethyl-pyrazolo[1,5-a]pyrimidine], the IC50 is 93 nM at human GPR4 [1]; 33 nM on human GPR4 [2] (setting [4]); 1340 nM at rat GPR4; 54 nM against human GPR4 [3]; 401 nM against mouse GPR4; above 30000 nM on Human H3.
In the case of `CCc1nn2c(C)cc(C)nc2c1Cc1ccc(/C=C/C2(O)CCNCC2)cc1` [Example 1, 4-{(E)-2-[4-(2-Ethyl-5,7-dimethyl-pyrazolo[1,5-a]pyrimidin-3-ylmethyl)-phenyl]-vinyl}-piperidin-4-ol], the IC50 at human GPR4 [1] is 25 nM; at human GPR4 [2] it was 45 nM; at rat GPR4 it was 931 nM; against human GPR4 [3] it was 37 nM; at mouse GPR4, 265 nM; at Human H3 it was above 30000 nM.
Turning to `CCc1nn2c(C)cc(C)nc2c1Cc1ccc(/C=C/CN2CCNCC2)cc1` [Example 14, 2-Ethyl-5,7-dimethyl-3-[4-((E)-3-piperazin-1-yl-propenyl)-benzyl]-pyrazolo[1,5-a]pyrimidine], the IC50 is 12 nM on human GPR4 [1]; 10 nM on human GPR4 [2] (setting [4]); 691 nM on rat GPR4; 55 nM at human GPR4 [3]; 127 nM against mouse GPR4; above 30000 nM at Human H3.
For `CCc1nn2c(C)cc(C)nc2c1Cc1ccc(/C=C/C(=O)N2CCNCC2)cc1` [Example 18, (E)-3-[4-(2-Ethyl-5,7-dimethyl-pyrazolo[1,5-a]pyrimidin-3-ylmethyl)-phenyl]-1-piperazin-1-yl-propenone hydrochloride], the IC50 on human GPR4 [1] (read-out: GPR4 4% HSA IC50) was 67 nM; on human GPR4 [2] (setting [4]) it was 81 nM; on rat GPR4, 1800 nM; at human GPR4 [3] it was 43 nM; at mouse GPR4 it was 1280 nM; on Human H3 it was above 30000 nM.
